Results published in ChEMBL document CHEMBL5352393, “Discovery of small-molecule modulators of the secretin receptor: Purmorphamine as novel anti-hypertensive agent” (Eur J Med Chem, 2022).
Each block holds one molecule with its values, some of them ahead of it. Active and inactive are the calls of the source. The calls are words filed in the database; no cut-off is given here.

What was measured:
Secretin receptor [1] = molecular target: T1, Secretin receptor (Homo sapiens, UniProt P47872); assay: Positive allosteric modulation of SCTR (unknown origin) overexpressed in CHO cells assessed as potentiation of SCT-induced cAMP production by measuring maximal response at 100 uM incubated for 20 mins by Lance cAMP assay relative to control (reference value: 100 %); format: functional, cell-based; settings: filed as positive allosteric modulator
Secretin receptor [2] = molecular target: T1, Secretin receptor; assay: Negative allosteric modulation of SCTR (unknown origin) overexpressed in CHO cells assessed as decrease in SCT-induced cAMP production by measuring maximal response at 100 uM incubated for 20 mins by Lance cAMP assay relative to control (reference value: 100 %); format: functional, cell-based; settings: filed as negative allosteric modulator
Rattus norvegicus [3] = assay: Antihypertensive activity in anesthetized spontaneous hypertensive rat model assessed as reduction in mean arterial blood pressure at 1 mg/kg, po measured within 20 hrs in presence of 0.3 mg/kg Azilsartan relative to control; format: functional; design: scale not given: the % may be the effect or the level left
Secretin receptor [4] = molecular target: T1, Secretin receptor; assay: Synergistic agonist activity at SCTR (unknown origin) expressed in CHO cells assessed as fold increase in cAMP production at 100 uM incubated for 20 mins in presence of SCT by Lance cAMP assay (reference value: 4.13); format: functional, cell-based; settings: filed as agonist
Secretin receptor [5] = molecular target: T1, Secretin receptor; assay: Positive allosteric modulation of SCTR (unknown origin) expressed in CHO cells assessed as potentiation of SCT-induced cAMP production by measuring maximal response at 100 uM incubated for 20 mins in presence of 1 uM SCT by Lance cAMP assay (reference value: 100 +/- 0.03%); format: functional, cell-based; settings: filed as positive allosteric modulator
Secretin receptor [6] = molecular target: T1, Secretin receptor; assay: Positive allosteric modulation of SCTR (unknown origin) expressed in CHO cells assessed as potentiation of SCT-induced cAMP production by measuring maximal response at 10 uM incubated for 20 mins in presence of 1 uM SCT by Lance cAMP assay (reference value: 100 +/- 0.03%); format: functional, cell-based; settings: filed as positive allosteric modulator
Secretin receptor [7] = molecular target: T1, Secretin receptor; assay: Positive allosteric modulation of SCTR (unknown origin) expressed in CHO cells assessed as potentiation of SCT-induced cAMP production by measuring maximal response at 1 uM incubated for 20 mins in presence of 1 uM SCT by Lance cAMP assay (reference value: 100 +/- 0.03%); format: functional, cell-based; settings: filed as positive allosteric modulator
Secretin receptor [8] = molecular target: T1, Secretin receptor; assay: Agonist activity at SCTR (unknown origin) expressed in CHO cells assessed as increase in cAMP production incubated for 20 mins Lance cAMP assay; format: functional, cell-based
Secretin receptor [9] = molecular target: T1, Secretin receptor; assay: Agonist activity at SCTR (unknown origin) expressed in CHO cells assessed as increase in cAMP production by measuring maximal response incubated for 20 mins Lance cAMP assay relative to control; format: functional, cell-based
Rattus norvegicus [10] = assay: Antihypertensive activity in anesthetized spontaneous hypertensive rat model assessed as reduction in blood pressure at 0.26 microg/g, iv administered through tail vein and measured after 20 to 50 hrs by DSI telemetric transmitter based analysis; format: functional, organism-based; settings: dose 0.26 µg/g, time 20-50 hrs
Rattus norvegicus [11] = assay: Antihypertensive activity in anesthetized spontaneous hypertensive rat model assessed as reduction in mean arterial blood pressure at 0.26 microg/g, iv administered through tail vein and measured after 20 to 50 hrs by DSI telemetric transmitter based analysis relative to control; format: functional; design: scale not given: the % may be the effect or the level left; settings: dose 0.26 µg/g, time 20-50 hrs
Rattus norvegicus [12] = assay: Antihypertensive activity in anesthetized spontaneous hypertensive rat model assessed as reduction in mean arterial blood pressure at 30 mg/kg, po measured after 15 hrs relative to control; format: functional; design: scale not given: the % may be the effect or the level left
Rattus norvegicus [13] = assay: Antihypertensive activity in anesthetized spontaneous hypertensive rat model assessed as reduction in mean arterial blood pressure at 50 mg/kg, po measured after 15 hrs relative to control; format: functional; design: scale not given: the % may be the effect or the level left
[14] = Cmax in C57 mouse blood at 1000 mg/kg, po administered via gavage measured upto 24 hrs by LC-MS/MS analysis; format: ADME, organism-based; design: time < 24 hrs, dose 1000 mg/kg, route po
[15] = Tmax in C57 mouse blood at 1000 mg/kg, po administered via gavage measured upto 24 hrs by LC-MS/MS analysis; format: ADME, organism-based
[16] = Drug concentration in C57 mouse blood at 1000 mg/kg, po administered via gavage measured at 6 hrs by LC-MS/MS analysis; format: ADME, organism-based; settings: read-out: Ct
[17] = Drug concentration in C57 mouse blood at 1000 mg/kg, po administered via gavage measured after 12 hrs by LC-MS/MS analysis; format: ADME, organism-based; settings: read-out: Ct
[18] = Drug concentration in C57 mouse blood at 1000 mg/kg, po administered via gavage measured at 24 hrs by LC-MS/MS analysis; format: ADME, organism-based; settings: read-out: Ct
[19] = Half life in C57 mouse blood at 1000 mg/kg, po administered via gavage measured upto 24 hrs by LC-MS/MS analysis; format: ADME, organism-based

T1 sequence (P47872 whole entry): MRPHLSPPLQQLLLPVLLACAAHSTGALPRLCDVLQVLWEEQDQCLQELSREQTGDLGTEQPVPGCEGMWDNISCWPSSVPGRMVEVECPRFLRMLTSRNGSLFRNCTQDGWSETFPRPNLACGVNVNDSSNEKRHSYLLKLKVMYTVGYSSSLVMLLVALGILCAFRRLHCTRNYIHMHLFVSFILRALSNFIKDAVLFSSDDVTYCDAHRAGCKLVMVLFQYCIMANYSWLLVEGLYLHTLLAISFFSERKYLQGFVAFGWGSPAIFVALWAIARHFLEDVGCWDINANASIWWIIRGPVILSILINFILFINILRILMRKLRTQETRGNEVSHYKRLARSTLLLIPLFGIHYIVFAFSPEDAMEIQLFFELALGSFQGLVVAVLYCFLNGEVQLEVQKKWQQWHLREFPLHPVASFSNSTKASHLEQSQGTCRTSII

SMILES: O=C(O)c1cn(C2CCCCC2)c2nc(Oc3cccc4ccccc34)nc(Nc3ccc(N4CCOCC4)cc3)c12
Emax (Secretin receptor [1]): 157%

SMILES: c1ccc(-c2ccc(Nc3nc(Oc4cccc5ccccc45)nc4c3ncn4C3CCCCC3)cc2)cc1
Emax (Secretin receptor [2]): 58.8%

SMILES: c1ccc(Oc2ccc(Nc3nc(Oc4cccc5ccccc45)nc4c3ncn4C3CCCCC3)cc2)cc1
Emax (Secretin receptor [1]): 98.8%

SMILES: c1ccc2c(Oc3nc(Nc4ccc(-c5cccc6ccccc56)cc4)c4ncn(C5CCCCC5)c4n3)cccc2c1
Emax (Secretin receptor [2]): 54.1%

SMILES: NS(=O)(=O)c1cc(C2(O)NC(=O)c3ccccc32)ccc1Cl (stereo unspecified) [CHLORTHALIDONE]
Activity (Rattus norvegicus [3]): 22.72%

More lines, main results first:

Emax (Secretin receptor [1]): 166%
SMILES: OC1CCN(c2ccc(Nc3nc(Oc4cccc5ccccc45)nc4c3ncn4C3CCCCC3)cc2)CC1

Emax (Secretin receptor [1]): 165%
SMILES: O[C@@H]1CCC[C@H](n2cnc3c(Nc4ccc(N5CCOCC5)cc4)nc(Oc4cccc5ccccc45)nc32)C1

Emax (Secretin receptor [1]): 181%
SMILES: Oc1cc(N2CCOCC2)ccc1Nc1nc(Oc2cccc3ccccc23)nc2c1ncn2C1CCCCC1

Emax (Secretin receptor [1]): 146%
SMILES: Oc1ccc2c(Oc3nc(Nc4ccc(N5CCOCC5)cc4)c4ncn(C5CCCCC5)c4n3)cccc2c1

fold change (FC) (Secretin receptor [4]): 6.1 | Emax (Secretin receptor [5]): 238% | Emax (Secretin receptor [6]): 103% | Emax (Secretin receptor [7]): 117% | EC50 (Secretin receptor [8]): 191 µM | Emax (Secretin receptor [9]): 10.3% | Emax (Secretin receptor [1]): 204% | Cmax [14]: 647 ng/mL | Tmax [15]: 0.5 h | concentration at 6 h [16]: > 300 ng/mL | concentration at 12 h [17]: 260 ng/mL | concentration at 24 h [18]: 61 ng/mL | half-life [19]: 7.7 h
SMILES: c1ccc2c(Oc3nc(Nc4ccc(N5CCOCC5)cc4)c4ncn(C5CCCCC5)c4n3)cccc2c1 [PURMORPHAMINE]
Activity (Rattus norvegicus [10]): Active | Activity (Rattus norvegicus [11]): ~14% | Activity (Rattus norvegicus [12]): 10.33% | Activity (Rattus norvegicus [13]): 7.63%
